Test results published in ChEMBL document CHEMBL4295262, “Evaluation of the utility of stem-cell derived cardiomyocytes for drug proarrhythmic potential” (2019).

Assays:
[1] = (§1) Electrical activity assay on cell lines treated with a given drug. DMSO was used as a vehicle and a control, unblinded dofetilide was used as a control.; conditions: human, ipsc-cm
[2] = as §1; assay type: ADME, cell-based; design: FPDc: unit not given here; conditions: human, ipsc-cm
[3] = as §1; conditions: human, ipsc-cm; remark: listed apart in the source
[4] = as §1; assay type: cell-based; design: APDc: unit not given here; conditions: human, ipsc-cm
[5] = as §1; assay type: ADME, cell-based; conditions: human, ipsc-cm, 0.01 µM; concentration (um) 0.01 uM
[6] = as §1; assay type: ADME, cell-based; conditions: human, ipsc-cm, 0.001 µM; concentration (um) 0.001 uM
[7] = as §1; assay type: ADME, cell-based; design: FPDc: unit not given here; conditions: human, ipsc-cm, 0.01 µM; concentration (um) 0.01 uM
[8] = 0.01 µM, concentration (um) 0.01 uM
[9] = 0.1 µM, concentration (um) 0.1 uM
[10] = 10 µM, concentration (um) 10 uM
[11] = 100 µM, concentration (um) 100 uM

FPDc [2, 8] | FPDc [2, 9] | FPDc ([2]; 1 µM, concentration (um) 1 uM) | FPDc [2, 10] | FPDc ([3]; 0.01 µM) | FPDc ([3]; 0.1 µM) | FPDc ([3]; 1 µM) | APDc [4, 8] | FPD measurement [4, 8] [FPDc] | APDc [4, 9] | FPD measurement [4, 9] [FPDc] | APDc ([4]; 1 µM, concentration (um) 1 uM) | FPD measurement ([4]; 1 µM, concentration (um) 1 uM) [FPDc] | APDc [4, 10] | FPD measurement [4, 10] [FPDc] | SMILES | FPDc ([3]; 10 µM) | other results
 | 0.03502 | 0.03611 | 0.04288 |  |  |  |  |  | 48.18 | 48.18 | 53.12 | 53.12 | 61.24 | 61.24 | CC[C@H]1OC(=O)[C@H](C)[C@@H](O[C@H]2C[C@@](C)(OC)[C@@H](O)[C@H](C)O2)[C@H](C)[C@@H](O[C@@H]2O[C@H](C)C[C@H](N(C)C)[C@H]2O)[C@](C)(OC)C[C@@H](C)C(=O)[C@H](C)[C@@H](O)[C@]1(C)O [CLARITHROMYCIN] |  | FPDc [2, 11]: 0.03271; APDc [4, 11]: 79.49; FPD measurement [4, 11]: 79.49 FPDc
 |  |  |  |  |  | 70.37 |  |  |  |  |  |  |  |  | C[S+](C)[O-] [DIMETHYL SULFOXIDE] |  | FPD measurement ([1]; 0.001 µM): 55.35 FPDc; FPDc ([1]; 0.001 µM): 55.35; FPD measurement [5]: 25 Values Out Of 25 Were Excluded Due To Quiescence Or 0 Apdc; FPDc [5]: 20.63; FPDc ([2]; 0.001 µM, concentration (um) 0.001 uM): 0.03393; FPD measurement [6]: 49.93 FPDc; FPDc [6]: 72 Values Out Of 72 Were Excluded Due To Quiescence Or 0 Fpdc; FPDc [7]: 50.28

SMILES | FPDc [2, 8] | FPDc [2, 9] | FPDc ([2]; 1 µM, concentration (um) 1 uM) | FPDc [2, 10] | FPDc ([3]; 0.01 µM) | FPDc ([3]; 0.1 µM) | FPDc ([3]; 1 µM) | APDc [4, 8] | FPD measurement [4, 8] [FPDc] | APDc [4, 9] | FPD measurement [4, 9] [FPDc] | APDc ([4]; 1 µM, concentration (um) 1 uM) | FPD measurement ([4]; 1 µM, concentration (um) 1 uM) [FPDc] | APDc [4, 10] | FPD measurement [4, 10] [FPDc] | FPDc ([3]; 10 µM) | other results
CN1CCN(CCCCN2C(=O)CN(/N=C/c3ccc(-c4ccc(Cl)cc4)o3)C2=O)CC1 [AZIMILIDE] | 0.03892 | 0.04044 | 0.04651 | 0.06031 | 73.84 | 69.12 | More Than Half The Wells Had A Quiescence Event Or Fpdc Readings Of 0 | 52.41 | 52.41 | 47.87 | 47.87 | 63.58 | 63.58 | 121.3 | 121.3 | More Than Half The Wells Had A Quiescence Event Or Fpdc Readings Of 0 | FPD measurement ([1]; 0.01 µM): 55.32 FPDc; FPDc ([1]; 0.01 µM): 55.32; FPD measurement ([1]; 0.1 µM): 56.52 FPDc; FPDc ([1]; 0.1 µM): 56.52; FPD measurement ([1]; 1 µM): 77.06 FPDc; FPDc ([1]; 1 µM): 77.06; FPD measurement ([1]; 10 µM): 5 Values Out Of 5 Were Excluded Due To Quiescence Or 0 Fpdc; FPDc ([1]; 10 µM): 5 Values Out Of 5 Were Excluded Due To Quiescence Or 0 Fpdc
CC(C)COCC(CN(Cc1ccccc1)c1ccccc1)N1CCCC1 (configuration not stated) [BEPRIDIL] | 0.04073 | 0.0376 | 0.04541 | More Than Half The Wells Had A Quiescence Event Or Fpdc Readings Of 0 | 70.33 | 77.75 | 78.3 | 52.45 | 52.45 | 43.71 | 43.71 | 57.33 | 57.33 |  |  | More Than Half The Wells Had A Quiescence Event Or Fpdc Readings Of 0 | FPD measurement [2, 10]: More Than Half The Wells Had A Quiescence Event Or Fpdc Readings Of 0; FPD measurement ([3]; 1 µM): 5 Values Out Of 5 Were Excluded Due To Quiescence Or 0 Apdc; FPD measurement ([3]; 10 µM): More Than Half The Wells Had A Quiescence Event Or Apdc Readings Of 0
